How the values were obtained:
recombinant Plk1 = recombinant Plk1 (Homo sapiens, UniProt P53350); experiment: In Vitro Plk1 Enzyme Assay (SPA, GST-Cdc25C phosphorylation); assay type: biochemical; details: ATP 64 nM, 90 minutes, read-out: IC50 (Plk1 enzyme inhibition)
[1] = tested on: human colon tumour cell line HT29; experiment: Cellular Assay (phosphohistone H3 Ser10 mitotic marker, HT29); assay type: cell-based; details: HT-29, 24 h, HT29 cells, read-out: IC50 (cellular assay, phosphohistone H3)
Method: Chromosome condensation in mitosis is accompanied by phosphorylation of histone H3 on serine 10.
After 24 hours, cells were fixed in 3.7% (v/v) formaldehyde then permeabilised and blocked for 10 minutes in 100 μl 0.5% (v/v) Triton X-100, 1% (w/v) bovine serum albumin (BSA) in phosphate buffered saline (PBS). […] The raw assay data were analysed by non-linear regression analysis and used to determine an IC50 value for each compound.

Chain of recombinant Plk1 (P53350 whole entry): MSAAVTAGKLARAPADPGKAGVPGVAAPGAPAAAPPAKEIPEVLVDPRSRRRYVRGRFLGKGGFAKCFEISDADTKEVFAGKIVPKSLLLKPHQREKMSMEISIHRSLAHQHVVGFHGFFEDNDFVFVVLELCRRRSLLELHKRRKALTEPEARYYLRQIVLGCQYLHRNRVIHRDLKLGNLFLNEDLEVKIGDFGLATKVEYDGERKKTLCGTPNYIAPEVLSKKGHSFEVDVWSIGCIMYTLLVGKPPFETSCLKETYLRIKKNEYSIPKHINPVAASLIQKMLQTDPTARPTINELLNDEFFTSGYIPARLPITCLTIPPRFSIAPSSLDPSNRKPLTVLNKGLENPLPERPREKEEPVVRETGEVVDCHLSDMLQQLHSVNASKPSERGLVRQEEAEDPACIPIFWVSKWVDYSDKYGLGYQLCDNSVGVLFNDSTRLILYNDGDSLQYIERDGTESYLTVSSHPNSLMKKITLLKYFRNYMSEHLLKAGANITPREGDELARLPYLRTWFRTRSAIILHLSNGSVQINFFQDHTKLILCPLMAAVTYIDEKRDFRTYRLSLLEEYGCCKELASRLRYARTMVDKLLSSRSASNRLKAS

SMILES: COc1cc(C(=O)NCCN2CCOCC2)ccc1Nc1ncc2c(n1)N(C1CCCC1)CCC(=O)N2C [Example 13, 4-[(6-cyclopentyl-2-methyl-3-oxo-2,6,8,10-tetrazabicyclo[5.4.0]undeca-8,10,12-trien-9-yl)amino]-3-methoxy-N-(2-morpholin-4-ylethyl)benzamide]
- IC50 (recombinant Plk1): < 0.3 µM
- IC50 [1]: < 0.3 µM

SMILES: CN1CCC(NC(=O)c2cc(Cl)c(Nc3ncc4c(n3)N(C3CCCC3)CCC(=O)N4C)cc2F)CC1 [Example 322, 5-chloro-4-[(2-cyclopentyl-6-methyl-5-oxo-2,6,9,11-tetrazabicyclo[5.4.0]undeca-7,9,11-trien-10-yl)amino]-2-fluoro-N-(1-methyl-4-piperidyl)benzamide]
- IC50 (recombinant Plk1): < 0.3 µM
- IC50 [1]: < 0.3 µM

SMILES: CN1CCC(NC(=O)c2ccc(Nc3ncc4c(n3)N(C3CCCC3)CCC(=O)N4C)c(O)c2)CC1 [Example 186, 4-[(6-cyclopentyl-2-methyl-3-oxo-2,6,8,10-tetrazabicyclo[5.4.0]undeca-8,10,12-trien-9-yl)amino]-3-hydroxy-N-(1-methyl-4-piperidyl)benzamide]
- IC50 (recombinant Plk1): < 0.3 µM
- IC50 [1]: < 30 µM

SMILES: CN(C)CCNC(=O)c1ccc(Nc2ncc3c(n2)N(C2CCCC2)CCC(=O)N3C)c(Cl)c1 [Example 315, 3-chloro-4-[(2-cyclopentyl-6-methyl-5-oxo-2,6,9,11-tetrazabicyclo[5.4.0]undeca-7,9,11-trien-10-yl)amino]-N-(2-dimethylaminoethyl)benzamide]
- IC50 (recombinant Plk1): < 0.3 µM
- IC50 [1]: < 0.3 µM

SMILES: CN1C(=O)CCN(C2CCCC2)c2nc(Nc3cccc(OCCN4CCOCC4)c3)ncc21 [Example 180, 6-cyclopentyl-2-methyl-9-[[3-(2-morpholin-4-ylethoxy)phenyl]amino]-2,6,8,10-tetrazabicyclo[5.4.0]undeca-8,10,12-trien-3-one]
- IC50 (recombinant Plk1): < 100 µM
- IC50 [1]: < 30 µM

SMILES: COc1cc(C(=O)Nc2ccccc2)ccc1Nc1ncc2c(n1)N(C1CCCC1)CCC(=O)N2C [Example 99, 4-[(6-cyclopentyl-2-methyl-3-oxo-2,6,8,10-tetrazabicyclo[5.4.0]undeca-8,10,12-trien-9-yl)amino]-3-methoxy-N-phenyl-benzamide]
- IC50 (recombinant Plk1): < 100 µM
- IC50 [1]: < 1 µM

SMILES: COc1cc(OC2CCN(C)CC2)ccc1Nc1ncc2c(n1)N(C1CCCC1)CCC(=O)N2C [Example 113, 6-cyclopentyl-9-[[2-methoxy-4-[(1-methyl-4-piperidyl)oxy]phenyl]amino]-2-methyl-2,6,8,10-tetrazabicyclo[5.4.0]undeca-8,10,12-trien-3-one]
- IC50 (recombinant Plk1): < 1 µM
- IC50 [1]: < 1 µM

SMILES: CN1CCC(NC(=O)c2cnc(Nc3ncc4c(n3)N(C3CCCC3)CCC(=O)N4C)o2)CC1 [Example 264, 2-[(6-cyclopentyl-2-methyl-3-oxo-2,6,8,10-tetrazabicyclo[5.4.0]undeca-8,10,12-trien-9-yl)amino]-N-(1-methyl-4-piperidyl)1,3-oxazole-5-carboxamide]
- IC50 (recombinant Plk1): < 100 µM
- IC50 [1]: < 30 µM

SMILES: CC(C)N1CCC(=O)N(C)c2cnc(Nc3ccc(C(=O)NCCN4CCOCC4)cc3Cl)nc21 [Example 228, 3-chloro-4-[(2-methyl-3-oxo-6-propan-2-yl-2,6,8,10-tetrazabicyclo[5.4.0]undeca-7,9,11-trien-9-yl)amino]-N-(2-morpholin-4-ylethyl)benzamide]
- IC50 (recombinant Plk1): < 1 µM
- IC50 [1]: < 30 µM

SMILES: COc1cc(C(=O)N[C@H]2CCN(C(=O)OC(C)(C)C)C2)ccc1Nc1ncc2c(n1)N(C1CCCC1)CCC(=O)N2C [Example 53, tert-butyl (3S)-3-[[4-[(6-cyclopentyl-2-methyl-3-oxo-2,6,8,10-tetrazabicyclo[5.4.0]undeca-8,10,12-trien-9-yl)amino]-3-methoxy-benzoyl]amino]pyrrolidine-1-carboxylate]
- IC50 (recombinant Plk1): < 100 µM
- IC50 [1]: < 1 µM

SMILES: COc1cc(C(=O)NC2CN3CCC2CC3)ccc1Nc1ncc2c(n1)N(C1CCCC1)CCC(=O)N2C (stereo not shown) [Example 22, N-(1-azabicyclo[2.2.2]oct-8-yl)-4-[(6-cyclopentyl-2-methyl-3-oxo-2,6,8,10-tetrazabicyclo[5.4.0]undeca-8,10,12-trien-9-yl)amino]-3-methoxy-benzamide]
- IC50 (recombinant Plk1): < 0.3 µM
- IC50 [1]: < 0.3 µM

SMILES: CN1CCC(NC(=O)c2ccc(Nc3ncc4c(n3)N(C3CCCC3)CC(C)(C)C(=O)N4C)cc2)CC1 [Example 245, 4-[(2-cyclopentyl-4,4,6-trimethyl-5-oxo-2,6,9,11-tetrazabicyclo[5.4.0]undeca-7,9,11-trien-10-yl)amino]-N-(1-methyl-4-piperidyl)benzamide]
- IC50 (recombinant Plk1): < 0.3 µM
- IC50 [1]: < 0.3 µM

SMILES: CCN1CCC(NC(=O)c2ccc(Nc3ncc4c(n3)N(C3CCCC3)CC3(CC3)C(=O)N4C)c(OC)c2)CC1 [Example 383, 4-(9′-cyclopentyl-5′-methyl-6′-oxo-5′,6′,8′,9′-tetrahydrospiro[cyclopropane-1,7′-pyrimido[5,4-b][1,4]diazepine]-2′-ylamino)-N-(1-ethyl-4-piperidyl)-3-methoxy-benzamide]
- IC50 (recombinant Plk1): < 1 µM
- IC50 [1]: < 0.3 µM

SMILES: CN1CC[C@@H](NC(=O)c2cc(Cl)c(Nc3ncc4c(n3)N(C3CCCC3)CCC(=O)N4C)cc2F)C1 [Example 325, 5-chloro-4-[(2-cyclopentyl-6-methyl-5-oxo-2,6,9,11-tetrazabicyclo[5.4.0]undeca-7,9,11-trien-10-yl)amino]-2-fluoro-N-[(3R)-1-methylpyrrolidin-3-yl]benzamide]
- IC50 (recombinant Plk1): < 0.3 µM
- IC50 [1]: < 0.3 µM

SMILES: COCCNS(=O)(=O)c1ccc(Nc2ncc3c(n2)N(C2CCCC2)CCC(=O)N3C)cc1 [Example 125, 4-[(6-cyclopentyl-2-methyl-3-oxo-2,6,8,10-tetrazabicyclo[5.4.0]undeca-8,10,12-trien-9-yl)amino]-N-(2-methoxyethyl)benzenesulfonamide]
- IC50 (recombinant Plk1): < 100 µM
- IC50 [1]: < 30 µM

SMILES: COc1ccc(CCNC(C)=O)cc1Nc1ncc2c(n1)N(C1CCCC1)CCC(=O)N2C [Example 138, N-[2-[3-[(6-cyclopentyl-2-methyl-3-oxo-2,6,8,10-tetrazabicyclo[5.4.0]undeca-8,10,12-trien-9-yl)amino]-4-methoxy-phenyl]ethyl]acetamide]
- IC50 (recombinant Plk1): < 1 µM
- IC50 [1]: < 30 µM

SMILES: CCN(CC)CCCC(C)NC(=O)c1ccc(Nc2ncc3c(n2)N(C2CCCC2)CCC(=O)N3C)c(OC)c1 (stereo not shown) [Example 17, 4-[(6-cyclopentyl-2-methyl-3-oxo-2,6,8,10-tetrazabicyclo[5.4.0]undeca-8,10,12-trien-9-yl)amino]-N-(5-diethylaminopentan-2-yl)-3-methoxy-benzamide]
- IC50 (recombinant Plk1): < 0.3 µM
- IC50 [1]: < 0.3 µM

SMILES: COc1cc(C(=O)NC2CCNC2)ccc1Nc1ncc2c(n1)N(C1CCCC1)CCC(=O)N2C (stereo not shown) [Example 45, 4-[(6-cyclopentyl-2-methyl-3-oxo-2,6,8,10-tetrazabicyclo[5.4.0]undeca-8,10,12-trien-9-yl)amino]-3-methoxy-N-pyrrolidin-3-yl-benzamide]
- IC50 (recombinant Plk1): < 0.3 µM
- IC50 [1]: < 0.3 µM

SMILES: COCCN1CCC(NC(=O)c2ccc(Nc3ncc4c(n3)N(C3CCCC3)CCC(=O)N4C)c(OC)c2)CC1 [Example 29, 4-[(6-cyclopentyl-2-methyl-3-oxo-2,6,8,10-tetrazabicyclo[5.4.0]undeca-8,10,12-trien-9-yl)amino]-3-methoxy-N-[1-(2-methoxyethyl)-4-piperidyl]benzamide]
- IC50 (recombinant Plk1): < 0.3 µM
- IC50 [1]: < 0.3 µM

SMILES: COc1cc(C(=O)NCCCN(C)C)ccc1Nc1ncc2c(n1)N(C1CCCCC1)CC1(CC1)C(=O)N2C [Example 431, 4-(9′-cyclohexyl-5′-methyl-6′-oxo-5′,6′,8′,9′-tetrahydrospiro[cyclopropane-1,7′-pyrimido[5,4-b][1,4]diazepine]-2′-ylamino)-N-(3-dimethylaminopropyl)-3-methoxy-benzamide]
- IC50 (recombinant Plk1): < 0.3 µM
- IC50 [1]: < 0.3 µM

SMILES: COc1cc(C(=O)Nc2ccncc2)ccc1Nc1ncc2c(n1)N(C1CCCC1)CCC(=O)N2C [Example 67, 4-[(6-cyclopentyl-2-methyl-3-oxo-2,6,8,10-tetrazabicyclo[5.4.0]undeca-8,10,12-trien-9-yl)amino]-3-methoxy-N-pyridin-4-yl-benzamide]
- IC50 (recombinant Plk1): < 1 µM
- IC50 [1]: < 0.3 µM

SMILES: CN1C(=O)CCN(C2CCCC2)c2nc(Nc3ccc4[nH]c(-c5cccnc5)nc4c3)ncc21 [Example 132, 6-cyclopentyl-2-methyl-9-[(2-pyridin-3-yl-1H-benzoimidazol-5-yl)amino]-2,6,8,10-tetrazabicyclo[5.4.0]undeca-8,10,12-trien-3-one]
- IC50 (recombinant Plk1): < 1 µM
- IC50 [1]: < 30 µM

SMILES: COc1cc(C(=O)NC2CCN(C)CC2)ccc1Nc1ncc2c(n1)N(Cc1ccccc1)CCC(=O)N2C [Example 215, 4-[(6-benzyl-2-methyl-3-oxo-2,6,8,10-tetrazabicyclo[5.4.0]undeca-8,10,12-trien-9-yl)amino]-3-methoxy-N-(1-methyl-4-piperidyl)benzamide]
- IC50 (recombinant Plk1): < 1 µM
- IC50 [1]: < 30 µM

SMILES: CN(C)CC(C)(C)CNC(=O)c1ccc(Nc2ncc3c(n2)N(C2CCCC2)CCC(=O)N3)cc1 [Example 253, 4-[(6-cyclopentyl-3-oxo-2,6,8,10-tetrazabicyclo[5.4.0]undeca-8,10,12-trien-9-yl)amino]-N-(3-dimethylamino-2,2-dimethyl-propyl)benzamide]
- IC50 (recombinant Plk1): < 100 µM
- IC50 [1]: < 30 µM

SMILES: COc1cc(C(=O)NC2CCN(C)CC2)ccc1Nc1ncc2c(n1)N(Cc1ccoc1)CCC(=O)N2C [Example 231, 4-[[6-(3-furylmethyl)-2-methyl-3-oxo-2,6,8,10-tetrazabicyclo[5.4.0]undeca-8,10,12-trien-9-yl]amino]-3-methoxy-N-(1-methyl-4-piperidyl)benzamide]
- IC50 (recombinant Plk1): < 0.3 µM
- IC50 [1]: < 30 µM

SMILES: COc1cc(C(=O)NC2CCN(C)CC2)ccc1Nc1ncc2c(n1)N(C1CCCC1)C(C)CC(=O)N2C (stereo not shown) [Example 234, 4-[(6-cyclopentyl-2,5-dimethyl-3-oxo-2,6,8,10-tetrazabicyclo[5.4.0]undeca-8,10,12-trien-9-yl)amino]-3-methoxy-N-(1-methyl-4-piperidyl)benzamide]
- IC50 (recombinant Plk1): < 0.3 µM
- IC50 [1]: < 1 µM

— patent publication US7709471B2, “Compounds” (AstraZeneca AB, priority 2006, dated 2010)
